Measurements: BindingDB's records for doi:10.1016/j.bioorg.2015.05.009 (Peking University, 2015)

Biological target: Glycogen synthase kinase-3 beta (Homo sapiens, UniProt P49841)
Assay: Kinase-Glo Luminescent Kinase Assay
Details: pH 7.4
Procedure: Briefly, recombinant human GSK3β (1 µM, 10 µL) was mixed with 10 µL of GSK3β substrate ([…]pSEDEEE, 100 µM), 19 µL of 2.5 × kinase buffer (50 mM Tris-HCl, pH 7.4, 25 mM MgCl2), 10 µL of 10 µM ATP, 1 µL of the indicated amount of chemicals in DMSO to a final volume of 50 µL. Control reaction without kinase was set up. The mixtures were incubated at 30 °C for 40 min. The enzymatic reaction was stopped with 50 µL of Kinase-Glo reagent. Glow-type luminescence was recorded after 10 min.

Sequence of Glycogen synthase kinase-3 beta (P49841 whole entry): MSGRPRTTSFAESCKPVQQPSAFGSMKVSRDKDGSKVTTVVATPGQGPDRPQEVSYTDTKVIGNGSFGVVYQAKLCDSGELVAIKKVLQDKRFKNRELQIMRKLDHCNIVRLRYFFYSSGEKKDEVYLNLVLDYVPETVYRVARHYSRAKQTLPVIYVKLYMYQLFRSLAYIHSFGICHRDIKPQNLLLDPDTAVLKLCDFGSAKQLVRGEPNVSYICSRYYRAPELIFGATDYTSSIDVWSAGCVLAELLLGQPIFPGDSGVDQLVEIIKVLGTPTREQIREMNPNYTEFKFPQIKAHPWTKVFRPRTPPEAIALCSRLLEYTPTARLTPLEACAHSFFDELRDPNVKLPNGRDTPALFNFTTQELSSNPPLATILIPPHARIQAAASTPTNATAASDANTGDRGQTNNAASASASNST

SMILES | IC50 [nM]
COc1cc2c(C)cc3c(c2cc1OC)C(=O)NC3=O [7,8-Dimethoxy-5-methyl-1H-benzo[e]isoindole-1,3(2H)-dione] | 1010
COc1cc2c(CNC3CCN(S(=O)(=O)c4ccccc4[N+](=O)[O-])CC3)cc3c(c2cc1OC)C(=O)NC3=O [7,8-dimethoxy-5-((1-(2-nitrophenylsulfonyl)piperidin-4-ylamino)methyl)-1H-benzo[e]isoindole-1,3(2H)-dione (8f)] | 530
COc1cc2c(CNC3CCN(S(=O)(=O)c4ccc(C(F)(F)F)cc4)CC3)cc3c(c2cc1OC)C(=O)NC3=O [7,8-dimethoxy-5-((1-(4-(trifluoromethyl)phenylsulfonyl)piperidin-4-ylamino)methyl)-1Hbenzo[e]isoindole-1,3 (2H)-dione (8e)] | 530
COc1ccc(S(=O)(=O)N2CCC(NCc3cc4c(c5cc(OC)c(OC)cc35)C(=O)NC4=O)CC2)cc1 [7,8-dimethoxy-5-((1-(4-methoxyphenylsulfonyl)piperidin-4-ylamino)methyl)-1H-benzo[e]isoindole-1,3(2H)-dione (8b)] | 2610
COc1cc2c(CNC3CCN(S(=O)(=O)c4ccc([N+](=O)[O-])cc4)CC3)cc3c(c2cc1OC)C(=O)NC3=O [7,8-dimethoxy-5-((1-(4-nitrophenylsulfonyl)piperidin-4-ylamino)methyl)-1H-benzo[e]isoindole-1,3(2H)-dione (8c)] | 310
COc1cc2c(CNC3CCN(S(C)(=O)=O)CC3)cc3c(c2cc1OC)C(=O)NC3=O [7,8-dimethoxy-5-((1-(methylsulfonyl)piperidin-4-ylamino)methyl)-1H-benzo[e]isoindole-1,3(2H)-dione (8d)] | 360
COc1cc2c(CNC3CCN(S(=O)(=O)c4ccccc4)CC3)cc3c(c2cc1OC)C(=O)NC3=O [7,8-dimethoxy-5-((1-(phenylsulfonyl)piperidin-4-ylamino)methyl)-1H-benzo[e]isoindole-1,3(2H)-dione (8g)] | 1030
COc1cc2c(CNC3CCN(S(=O)(=O)c4cccc5cccnc45)CC3)cc3c(c2cc1OC)C(=O)NC3=O [7,8-dimethoxy-5-((1-(quinolin-8-ylsulfonyl)piperidin-4-ylamino)methyl)-1H-benzo[e]isoindole-1,3(2H)-dione (8h)] | 1530
COc1cc2c(CNC3CCN(S(=O)(=O)c4cccs4)CC3)cc3c(c2cc1OC)C(=O)NC3=O [7,8-dimethoxy-5-((1-(thiophen-2-ylsulfonyl)piperidin-4-ylamino)methyl)-1H-benzo[e]isoindole-1,3(2H)-dione (8i)] | 540
COc1cc2c(CNC3CCN(S(=O)(=O)c4ccc(C)cc4)CC3)cc3c(c2cc1OC)C(=O)NC3=O [7,8-dimethoxy-5-({[1-(4-methylbenzenesulfonyl)piperidin-4-yl]amino}methyl)-1H,2H,3H-benzo[e]isoindole-1,3-dione (8a)] | 3730
